Reference: patent publication US8124637B2, “Anthra [1, 2-d]imidazole-6,11-dione derivatives, preparation method and application thereof” (National Defense Medical Center, priority 2010, dated 2012)

Legend:
Test in all cases: NCI 60-cell drug screen, one dose
Type in all cases: cell-based, human
786-0 = settings: Renal Cancer 786-0, 1.00E−5 Molar
Experimental: (§1) In brief, cellular protein levels were determined after 48 hours of drug exposure by sulforhodamine B colorimetry.
(§2) The screening system in United State National Cancer Institute (NCI) consists of 60 kinds of different human cancer cells, which can be used to assay the growth-inhibiting ability or cell toxicity of a compound against various cancer and tumor at a certain concentration. The NCI had selected 6 compounds synthesized above, and performed cell toxicity assay against 60 kinds of cancer cell strains (Table 2) (DTP Human Tumor Cell Line Screen), in which each compound was assayed at a certain concentration to observe its inhibition ability or cell toxicity against various kinds of cancer and tumor.

ACHN = settings: Renal Cancer ACHN, 1.00E−5 Molar
Experimental: as §1, §2

BT-549 = settings: Breast Cancer BT-549, 1.00E−5 Molar
Experimental: as §1, §2

COLO 205 = settings: Colon Cancer COLO 205, 1.00E−5 Molar
Experimental: as §1, §2

DU145 = settings: Prostate Cancer DU145, 1.00E−5 Molar
Experimental: as §1, §2

EKVX = settings: Non-Small Cell Lung Cancer EKVX, 1.00E−5 Molar
Experimental: as §1, §2

HCT-116 = settings: Colon Cancer HCT-116, 1.00E−5 Molar
Experimental: as §1, §2

HCT-15 = settings: Colon Cancer HCT-15, 1.00E−5 Molar
Experimental: as §1, §2

HOP-62 = settings: Non-Small Cell Lung Cancer HOP-62, 1.00E−5 Molar
Experimental: as §1, §2

HOP-92 = settings: Non-Small Cell Lung Cancer HOP-92, 1.00E−5 Molar
Experimental: as §1, §2

IGROV1 = settings: Ovarian Cancer IGROV1, 1.00E−5 Molar
Experimental: as §1, §2

LOX IMVI = settings: Melanoma LOX IMVI, 1.00E−5 Molar
Experimental: as §1, §2

M14 = settings: Melanoma M14, 1.00E−5 Molar
Experimental: as §1, §2

MALME-3M = settings: Melanoma MALME-3M, 1.00E−5 Molar
Experimental: as §1, §2

MCF7 = settings: Breast Cancer MCF7, 1.00E−5 Molar
Experimental: as §1, §2

MDA-MB-231/ATCC = settings: Breast Cancer MDA-MB-231/ATCC, 1.00E−5 Molar
Experimental: as §1, §2

MDA-MB-435 = settings: Melanoma MDA-MB-435, 1.00E−5 Molar
Experimental: as §1, §2

MDA-MB-468 = settings: Breast Cancer MDA-MB-468, 1.00E−5 Molar
Experimental: as §1, §2

NCI-H226 = settings: Non-Small Cell Lung Cancer NCI-H226, 1.00E−5 Molar
Experimental: as §1, §2

NCI-H23 = settings: Non-Small Cell Lung Cancer NCI-H23, 1.00E−5 Molar
Experimental: as §1, §2

NCI-H322M = settings: Non-Small Cell Lung Cancer NCI-H322M, 1.00E−5 Molar
Experimental: as §1, §2

NCI-H522 = settings: Non-Small Cell Lung Cancer NCI-H522, 1.00E−5 Molar
Experimental: as §1, §2

OVCAR-3 = settings: Ovarian Cancer OVCAR-3, 1.00E−5 Molar
Experimental: as §1, §2

OVCAR-5 = settings: Ovarian Cancer OVCAR-5, 1.00E−5 Molar
Experimental: as §1, §2

SF-268 = settings: CNS Cancer SF-268, 1.00E−5 Molar
Experimental: as §1, §2

SF-539 = settings: CNS Cancer SF-539, 1.00E−5 Molar
Experimental: as §1, §2

SK-MEL-2 = settings: Melanoma SK-MEL-2, 1.00E−5 Molar
Experimental: as §1, §2

SK-MEL-5 = settings: Melanoma SK-MEL-5, 1.00E−5 Molar
Experimental: as §1, §2

SK-OV-3 = settings: Ovarian Cancer SK-OV-3, 1.00E−5 Molar
Experimental: as §1, §2

SNB-75 = settings: CNS Cancer SNB-75, 1.00E−5 Molar
Experimental: as §1, §2

SW-620 = settings: Colon Cancer SW-620, 1.00E−5 Molar
Experimental: as §1, §2

T-47D = settings: Breast Cancer T-47D, 1.00E−5 Molar
Experimental: as §1, §2

TK-10 = settings: Renal Cancer TK-10, 1.00E−5 Molar
Experimental: as §1, §2

U251 = settings: CNS Cancer U251, 1.00E−5 Molar
Experimental: as §1, §2

UACC-62 = settings: Melanoma UACC-62, 1.00E−5 Molar
Experimental: as §1, §2

UO-31 = settings: Renal Cancer UO-31, 1.00E−5 Molar
Experimental: as §1, §2

SMILES	Growth Percent (786-0) [%]	Growth Percent (ACHN) [%]	Growth Percent (BT-549) [%]	Growth Percent (COLO 205) [%]	Growth Percent (DU145) [%]	Growth Percent (EKVX) [%]	Growth Percent (HCT-116) [%]	Growth Percent (HCT-15) [%]	Growth Percent (HOP-62) [%]	Growth Percent (HOP-92) [%]	Growth Percent (IGROV1) [%]	Growth Percent (LOX IMVI) [%]	Growth Percent (M14) [%]	Growth Percent (MALME-3M) [%]	Growth Percent (MCF7) [%]	Growth Percent (MDA-MB-231/ATCC) [%]	Growth Percent (MDA-MB-435) [%]	Growth Percent (MDA-MB-468) [%]	Growth Percent (NCI-H226) [%]	Growth Percent (NCI-H23) [%]	other results
CN1CCN(Cc2nc3ccc4c(c3[nH]2)C(=O)c2ccccc2C4=O)CC1 [CL24, 2-((4-methylpiperazin-1-yl)methyl)-1H-anthra[1,2-d]imidazole-6,11-dione]	59.13	33.08	100.53	53.66	60.08	65.93	27.73	44.98	60.84	9.17	12.05	43.47	97.20	89.63	36.71	61.66	86.53	71.59	64.48	72.97	Growth Percent (NCI-H322M): 82.41%; Growth Percent (NCI-H522): 64.61%; Growth Percent (OVCAR-3): 52.79%; Growth Percent (OVCAR-5): 97.72%; Growth Percent (SF-268): 51.16%; Growth Percent (SF-539): 63.88%; Growth Percent (SK-MEL-2): 107.95%; Growth Percent (SK-MEL-5): 77.46%; Growth Percent (SK-OV-3): 74.33%; Growth Percent (SNB-75): 69.87%; Growth Percent (SW-620): 44.22%; Growth Percent (T-47D): 97.08%; Growth Percent (TK-10): 73.05%; Growth Percent (U251): 65.41%; Growth Percent (UACC-62): 81.12%; Growth Percent (UO-31): 22.93%
O=C1c2ccccc2C(=O)c2c1ccc1nc(CN3CCN(c4ccccc4)CC3)[nH]c21 [CL27, 2-((4-phenylpiperazin-1-yl)methyl)-1H-anthra[1,2-d]imidazole-6,11-dione]	88.48	86.32	110.22	128.37	90.69	88.70	78.28	74.39	98.40	178.61	69.25	95.76	106.33	119.09	66.08	90.47	101.37	72.75	82.98	92.11	Growth Percent (NCI-H322M): 91.96%; Growth Percent (NCI-H522): 73.61%; Growth Percent (OVCAR-3): 76.56%; Growth Percent (OVCAR-5): 107.63%; Growth Percent (SF-268): 80.44%; Growth Percent (SF-539): 112.36%; Growth Percent (SK-MEL-2): 101.39%; Growth Percent (SK-MEL-5): 74.84%; Growth Percent (SK-OV-3): 98.95%; Growth Percent (SNB-75): 70.93%; Growth Percent (SW-620): 90.92%; Growth Percent (T-47D): 66.35%; Growth Percent (TK-10): 118.37%; Growth Percent (U251): 84.83%; Growth Percent (UACC-62): 93.36%; Growth Percent (UO-31): 58.33%
O=C1c2ccccc2C(=O)c2c1ccc1nc(CN3CCN(c4ccccn4)CC3)[nH]c21 [CL28, 2-((4-(pyridin-2-yl)piperazin-1-yl)methyl)-1H-anthra[1,2-d]imidazole-6,11-dione]	91.03	80.61	102.42	110.79	81.46	63.00	84.30	86.02	103.18	93.87	91.25	82.25	103.99	124.77	81.99	72.65	94.85	53.92	91.88	81.65	Growth Percent (NCI-H322M): 93.77%; Growth Percent (NCI-H522): 94.06%; Growth Percent (OVCAR-3): 88.67%; Growth Percent (OVCAR-5): 110.77%; Growth Percent (SF-268): 79.15%; Growth Percent (SF-539): 104.29%; Growth Percent (SK-MEL-2): 98.34%; Growth Percent (SK-MEL-5): 83.56%; Growth Percent (SK-OV-3): 93.16%; Growth Percent (SNB-75): 82.14%; Growth Percent (SW-620): 85.97%; Growth Percent (T-47D): 56.78%; Growth Percent (TK-10): 120.65%; Growth Percent (U251): 86.28%; Growth Percent (UACC-62): 85.13%; Growth Percent (UO-31): 60.42%
CN(CCc1ccccn1)Cc1nc2ccc3c(c2[nH]1)C(=O)c1ccccc1C3=O [CL07, 2-((N-methyl-2-(pyridin-2-yl)ethanamino)methyl)-1H-anthra[1,2-d]imidazole-6,11-dione]	89.74	80.20	114.38	117.88	83.70	82.24	83.56	80.78	105.37	101.41	54.26	89.67	106.97	107.00	69.06	88.98	93.53	77.09	81.36	90.81	Growth Percent (NCI-H322M): 102.29%; Growth Percent (NCI-H522): 86.39%; Growth Percent (OVCAR-3): 83.57%; Growth Percent (OVCAR-5): 109.14%; Growth Percent (SF-268): 85.87%; Growth Percent (SF-539): 102.32%; Growth Percent (SK-MEL-2): 95.03%; Growth Percent (SK-MEL-5): 75.48%; Growth Percent (SK-OV-3): 106.7%; Growth Percent (SNB-75): 81.62%; Growth Percent (SW-620): 100.52%; Growth Percent (T-47D): 68.45%; Growth Percent (TK-10): 130.74%; Growth Percent (U251): 81.83%; Growth Percent (UACC-62): 89.67%; Growth Percent (UO-31): 49.49%
